# Structures can show the parent of a compound that is named as a salt.
# Legend:
# RSK4 [1] = target: T1, RSK4 (Homo sapiens, UniProt Q9UK32); assay: biochemical; settings: for activity in RSK4 HTRF-activation assay (inhibitor or inactive): floxacin family members
# A549 cells [2] = assay: Random cell migration / 3D collagen-I invasion of A549 cells; format: cell-based; settings: for cell migration/invasiveness: inhibitors 10 μM
# A549 cells [3] = assay: Caspase activation in A549 cells; format: cell-based; settings: cisplatin 12.5 μM 24 h
# A549 cells [4] = assay: Western blot of BCL2, cIAP1 and cIAP2 expression in A549 cells; format: cell-based; settings: 24 h
# ERK = ERK (Homo sapiens, UniProt P28482); assay: ERK activity; format: biochemical
# Sequence of ERK (P28482 whole entry): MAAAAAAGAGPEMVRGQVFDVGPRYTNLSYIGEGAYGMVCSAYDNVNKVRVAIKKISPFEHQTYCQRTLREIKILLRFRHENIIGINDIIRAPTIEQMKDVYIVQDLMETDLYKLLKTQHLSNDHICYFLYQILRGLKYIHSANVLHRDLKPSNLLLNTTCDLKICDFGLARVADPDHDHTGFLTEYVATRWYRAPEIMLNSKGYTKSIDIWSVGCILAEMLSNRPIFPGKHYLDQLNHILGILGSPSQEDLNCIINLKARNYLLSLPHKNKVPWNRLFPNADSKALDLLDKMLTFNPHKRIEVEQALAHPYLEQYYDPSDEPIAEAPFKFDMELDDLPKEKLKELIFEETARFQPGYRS
# RSK4 [5] = target: T1, RSK4; format: biochemical
# bladder cancer explants = assay: Patient-derived bladder cancer explants; settings: synergistic in two, additive in one
# A549-Luc xenograft = assay: A549-Luc subcutaneous xenograft in nude mice; format: in vivo; settings: 30 mg/kg daily oral gavage, 14 days
# A549 cells [6] = assay: Cisplatin/taxol sensitisation of A549 cells; format: cell-based
# RSK1 = RSK1 (Homo sapiens, UniProt Q15418); assay: RSK1 activation in cells; format: cell-based; settings: preliminary data
# Sequence of RSK1 (Q15418 whole entry): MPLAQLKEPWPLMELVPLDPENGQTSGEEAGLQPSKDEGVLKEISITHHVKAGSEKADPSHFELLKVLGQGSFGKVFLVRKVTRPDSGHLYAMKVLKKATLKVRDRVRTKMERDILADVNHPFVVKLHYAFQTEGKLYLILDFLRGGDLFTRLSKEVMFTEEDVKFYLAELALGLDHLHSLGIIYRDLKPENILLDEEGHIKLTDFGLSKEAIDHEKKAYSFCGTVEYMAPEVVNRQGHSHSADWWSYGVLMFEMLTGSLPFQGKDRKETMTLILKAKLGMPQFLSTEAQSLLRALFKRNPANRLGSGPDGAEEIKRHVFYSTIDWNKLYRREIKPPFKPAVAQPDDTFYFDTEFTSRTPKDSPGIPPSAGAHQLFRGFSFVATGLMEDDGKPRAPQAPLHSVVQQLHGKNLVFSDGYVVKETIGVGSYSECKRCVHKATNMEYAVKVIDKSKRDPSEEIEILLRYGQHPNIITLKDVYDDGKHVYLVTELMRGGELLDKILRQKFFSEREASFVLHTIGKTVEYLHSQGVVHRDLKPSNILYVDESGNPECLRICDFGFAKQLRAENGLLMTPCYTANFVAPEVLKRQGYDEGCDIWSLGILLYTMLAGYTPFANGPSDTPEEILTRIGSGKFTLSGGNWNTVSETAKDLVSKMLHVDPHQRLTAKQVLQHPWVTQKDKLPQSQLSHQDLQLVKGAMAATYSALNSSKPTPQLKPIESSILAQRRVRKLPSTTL
# panel of 140 kinases = assay: In-vitro activity screen against a panel of 140 kinases; format: biochemical; settings: 10 μM
# [7] = target: RSK4 N-terminal kinase domain (RSK4-NTKD) (Homo sapiens, UniProt Q9UK32); assay: Differential scanning fluorimetry; format: binding; settings: inactive/dephosphorylated (APO) vs fully-active (ATP)
# Sequence of RSK4 N-terminal kinase domain (RSK4-NTKD) (Q9UK32 48-349): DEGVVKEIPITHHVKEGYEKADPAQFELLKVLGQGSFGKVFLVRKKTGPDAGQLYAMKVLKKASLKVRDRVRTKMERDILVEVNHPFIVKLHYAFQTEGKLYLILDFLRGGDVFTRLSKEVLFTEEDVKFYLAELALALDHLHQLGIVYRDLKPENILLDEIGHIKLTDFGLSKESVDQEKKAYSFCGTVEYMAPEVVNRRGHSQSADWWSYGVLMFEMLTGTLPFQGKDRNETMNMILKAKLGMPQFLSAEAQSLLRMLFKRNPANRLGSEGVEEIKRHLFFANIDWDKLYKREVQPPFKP
# cIAP1 and cIAP2 = assay: Cellular cIAP1 and cIAP2 expression after levofloxacin; format: cell-based; settings: concentrations achievable from the clinical trial dose
# [8] = test system: patients undergoing chemotherapy; assay: Retrospective overall survival analysis of the SIGNIFICANT trial; format: in vivo, human
# T1 sequence (Q9UK32 whole entry): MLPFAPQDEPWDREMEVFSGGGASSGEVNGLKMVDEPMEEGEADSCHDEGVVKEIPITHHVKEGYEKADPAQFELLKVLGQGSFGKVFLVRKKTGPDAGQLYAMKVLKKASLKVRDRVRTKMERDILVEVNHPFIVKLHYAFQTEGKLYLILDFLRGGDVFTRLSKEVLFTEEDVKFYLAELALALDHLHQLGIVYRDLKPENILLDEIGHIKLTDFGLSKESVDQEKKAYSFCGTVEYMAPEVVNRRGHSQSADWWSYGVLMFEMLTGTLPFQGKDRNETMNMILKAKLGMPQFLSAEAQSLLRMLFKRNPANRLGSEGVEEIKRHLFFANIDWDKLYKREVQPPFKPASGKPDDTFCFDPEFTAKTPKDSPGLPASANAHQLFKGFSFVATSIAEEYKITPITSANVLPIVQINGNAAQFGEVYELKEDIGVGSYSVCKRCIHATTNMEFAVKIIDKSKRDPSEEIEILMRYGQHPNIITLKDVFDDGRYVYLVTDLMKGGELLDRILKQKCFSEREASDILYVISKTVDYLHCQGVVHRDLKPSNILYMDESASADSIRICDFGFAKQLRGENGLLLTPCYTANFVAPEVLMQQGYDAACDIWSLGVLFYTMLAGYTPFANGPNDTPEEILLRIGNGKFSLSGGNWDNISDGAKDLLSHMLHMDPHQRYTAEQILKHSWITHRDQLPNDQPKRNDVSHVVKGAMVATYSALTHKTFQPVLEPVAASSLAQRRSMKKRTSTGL
structure (smiles),measurement,setting,value
CCn1cc(C(=O)O)c(=O)c2cnc(N3CCCC3)nc21 [piromidic acid],activity in RSK4 HTRF-activation assay (inhibitor or inactive),RSK4 [1],inactive analogues
CC(=O)O[C@@H]1[C@@H](OC(C)=O)[C@@H](O)[C@H](Oc2c(-c3ccc(O)cc3)oc3cc(O)cc(O)c3c2=O)O[C@H]1C [SL-0101],invasiveness of A549 cells with pan-RSK inhibitor,A549 cells [2],promotes lung cancer invasiveness
CC(C)CCN1c2nc(Nc3cc(F)c(O)c(F)c3)ncc2N(C)C(=O)C1C (centres unmarked) [BI-D1870],caspase activation in response to cisplatin,A549 cells [3],failed to promote cisplatin-induced caspase activation
same,expression of BCL2 and cIAP1/2,A549 cells [4],an effect not seen
CN1CCN(c2c(F)cc3c(=O)c(C(=O)O)cn4c3c2OCN4C)CC1 [marbofloxacin],activity in RSK4 HTRF-activation assay (inhibitor or inactive),RSK4 [1],additional inhibitors
"NC1CCN(c2nc3c(cc2F)c(=O)c(C(=O)O)cn3-c2ccc(F)cc2F)C1 (centres unmarked) [tosufloxacin, tosufloxacin tosylate]",activity in RSK4 HTRF-activation assay (inhibitor or inactive),RSK4 [1],additional inhibitors
same,cell migration/invasiveness,A549 cells [2],shared this ability
COc1c(N2C[C@@H]3CCCN[C@@H]3C2)c(F)cc2c(=O)c(C(=O)O)cn(C3CC3)c12 [moxifloxacin],effect on ERK activity,ERK,did not interfere with ERK activity
same,IC50,RSK4 [1],6.2 µM
same,mode of inhibition of RSK4 activation,RSK4 [1],non-ATP competitive reversible inhibitor of RSK4 activation
same,preference RSK4 activation vs fully-active RSK4,RSK4 [1],preference for preventing RSK4 activation rather than inhibiting fully-active RSK4
same,selectivity RSK4 vs RSK1,RSK4 [1],favoured RSK4 over RSK1
same,inhibition at 30 µM,RSK4 [1]; read-out: inhibition of RSK4 activation,> 75%
same,α (non-competitive binding to Enzyme and Enzyme-Substrate state),RSK4 [5],1
same,effect on ATP Km and Vmax of RSK4,RSK4 [5]; sub-maximal inhibition,maintained Km and displayed reduced Vmax
same,cell migration/invasiveness,A549 cells [2],shared this ability
N[C@@H]1[C@H]2CN(c3nc4c(cc3F)c(=O)c(C(=O)O)cn4-c3ccc(F)cc3F)C[C@@H]12 [trovafloxacin],benefit of combination with cisplatin in explants,bladder cancer explants,beneficial in 3 out of 4 patient-derived bladder cancer explants
same,caspase activation in response to cisplatin,A549 cells [3],promotion of caspase activation
same,IC50,RSK4 [1],10 µM
same,activity in RSK4 HTRF-activation assay (inhibitor or inactive),RSK4 [1],additional inhibitors
same,tumour growth vs vehicle-only,A549-Luc xenograft,significantly (p<0.05) decreased tumour growth
same,expression of BCL2 and cIAP1/2,A549 cells [4],decreased expression of BCL2 and cIAP1/2
same,sensitisation of A549 cells to cisplatin,"A549 cells [6]; 7.5 μM, cisplatin 12.5 μM for 72 h",reducing the IC50 for cisplatin
same,concentration giving maximal potentiation of cisplatin or taxol effects,A549 cells [6]; A549 cells,≈ 10 μM
same,nature of the relationship with cisplatin,A549 cells [6]; A549 cells,synergistic
same,activation of RSK1 in cells,RSK1,does not inhibit the activation of RSK1 in cells
same,cell migration/invasiveness,A549 cells [2],reproduced the inhibition of cell migration/invasiveness
same,inhibition of other kinases,panel of 140 kinases,No other kinase was substantially inhibited
same,binding to RSK4-NTKD,[7],"bound the inactive/dephosphorylated, but not the fully-active"
C[C@H]1COc2c(N3CCN(C)CC3)c(F)cc3c(=O)c(C(=O)O)cn1c23 [levofloxacin],cellular cIAP1 and cIAP2 expression,cIAP1 and cIAP2,decreased cellular cIAP1 and cIAP2 expression
same,activity in RSK4 HTRF-activation assay (inhibitor or inactive),RSK4 [1],inhibited RSK4 activation
same,hazard ratio for overall survival vs placebo,"[8]; adherent patients (n=937), 95% CI 0.69-0.999, p=0.048",0.83
same,hazard ratio in lung and bladder cancer patients compared to the entire cohort,[8]; lung and bladder cancer patients,further improved
same,hazard ratio for overall survival vs placebo,"[8]; non-adherent patients (n=543), 95% CI 0.89-1.40, p=0.36",1.11
same,median overall survival,[8]; patients adhering to trial treatment (n=937),72 months
CN1CCN(c2c(F)cc3c(=O)c(C(=O)O)cn4c3c2SCC4)CC1 [rufloxacin],activity in RSK4 HTRF-activation assay (inhibitor or inactive),RSK4 [1],additional inhibitors
O=C(O)c1cn(C2CC2)c2cc(N3CCNCC3)c(F)cc2c1=O [ciprofloxacin],expression of BCL2 and cIAP1/2,A549 cells [4],an effect not seen
same,cell migration/invasiveness,A549 cells [2],did not impair cell invasiveness
same,binding to RSK4-NTKD,[7],failed to bind RSK4
CN1C[C@@H]2C[C@H]1CN2c1cc2c(cc1F)c(=O)c(C(=O)O)cn2C1CC1 [danofloxacin],activity in RSK4 HTRF-activation assay (inhibitor or inactive),RSK4 [1],inactive analogues
same,cell migration/invasiveness,A549 cells [2],did not impair cell invasiveness

# Source: publication PMC7611705 (Science translational medicine, 2021)
